Patent US10336762B2 (priority 2017, dated 2019)
Read-outs that look alike come from different tables or passages of the source.

Columns and labels:
[1] = system: TNFα; test: cells; format: cell-based, human; conditions: Homo sapiens, Monocyte, LPS-stimulated human monocytes, read-out: EC50 TNF
[2] = target: IRAK4 enzyme (Homo sapiens (Human), UniProt Q9NWZ3); test: biochemical; format: biochemical; conditions: IRAK4 enzyme, 500 μM ATP
IRAK4 enzyme, sequence (Q9NWZ3 whole entry): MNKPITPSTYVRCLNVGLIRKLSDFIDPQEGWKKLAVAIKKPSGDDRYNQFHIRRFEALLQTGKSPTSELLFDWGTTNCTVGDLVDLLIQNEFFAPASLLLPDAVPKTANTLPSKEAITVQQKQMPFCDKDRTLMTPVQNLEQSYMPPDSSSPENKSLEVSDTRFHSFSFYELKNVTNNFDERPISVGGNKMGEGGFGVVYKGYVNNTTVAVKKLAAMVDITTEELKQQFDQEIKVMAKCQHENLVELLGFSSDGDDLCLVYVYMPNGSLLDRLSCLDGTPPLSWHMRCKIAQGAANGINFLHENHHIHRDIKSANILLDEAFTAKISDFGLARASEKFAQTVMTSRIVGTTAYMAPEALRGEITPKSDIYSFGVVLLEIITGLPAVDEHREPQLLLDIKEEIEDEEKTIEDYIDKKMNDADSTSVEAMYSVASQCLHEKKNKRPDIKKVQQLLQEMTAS

| SMILES | EC50 ([1]; TNFα content) | IC50 ([2]; TR-FRET (HTRF)) | EC50 ([1]; TNFα by TR-FRET) | IC50 ([2]; TR-FRET) |
| --- | --- | --- | --- | --- |
| CC(C)(O)[C@H](F)CNC(=O)c1cnc(-c2ccc3cc(C#N)cnn23)cc1N[C@H]1C[C@H](CO)C1 [Example 536, 6-(3-cyanopyrrolo[1,2-b]pyridazin-7-yl)-N-((R)-2-fluoro-3-hydroxy-3-methylbutyl)-4-(((1r,3R)-3-(hydroxymethyl)cyclo-butyl)amino)nicotinamide] | 16 nM | < 1 nM |  |  |
| N#Cc1cnn2c(-c3cc(NC45CCC(O)(CC4)CC5)c(C(=O)NC[C@H]4C[C@@H](NC(=O)C5CC5)C4)cn3)ccc2c1 [Example 732, 6-(3-cyanopyrrolo[1,2-b]pyridazin-7-yl)-N-(((1s,3s)-3-(cyclopropane-carboxamido)cyclobutyl)methyl)-4-((4-hydroxy-bicyclo[2.2.2]octan-1-yl)amino)nicotinamide] | 89 nM | 1 nM |  |  |
| Cc1n[nH]c2cc(Nc3cc(-c4ccc5cc(C#N)cnn45)ncc3C(=O)NC[C@@H](F)C(C)(C)O)ccc12 [Example 660, (R)-6-(3-cyanopyrrolo[1,2-b]pyridazin-7-yl)-N-(2-fluoro-3-hydroxy-3-methylbutyl)-4-((3-methyl-1H-indazol-6-yl)amino) nicotinamide] | 64 nM | 1 nM |  |  |
| CCCOc1cncc(Nc2cc(-c3ccc4cc(C#N)cnn34)ncc2C(=O)NC[C@@H](F)C(C)(C)O)c1 [Example 849, (R)-6-(3-cyanopyrrolo[1,2-b]pyridazin-7-yl)-N-(2-fluoro-3-hydroxy-3-methylbutyl)-4-((5-propoxy-pyridin-3-yl)amino) nicotinamide] |  |  | 11 nM | < 1 nM |
| CC(C)(O)[C@H](F)CNC(=O)c1cnc(-c2ccc3cc(C#N)cnn23)cc1Nc1ccc(OC2COC2)nc1 [Example 649, (R)-6-(3-cyanopyrrolo[1,2-b]pyridazin-7-yl)-N-(2-fluoro-3-hydroxy-3-methylbutyl)-4-((6-(oxetan-3-yloxy)pyridin-3-yl)amino)nicotinamide] | > 10000 nM | 21 nM |  |  |
| CC(C)(O)[C@H](F)CNC(=O)c1cnc(-c2ccc3cc(C#N)cnn23)cc1N[C@H]1C[C@H](CNC(=O)CC(F)(F)F)C1 [Example 655, 6-(3-cyanopyrrolo[1,2-b]pyridazin-7-yl)-N-((R)-2-fluoro-3-hydroxy-3-methylbutyl)-4-(((1r,3R)-3-((3,3,3-trifluoropropan-amido)methyl)cyclobutyl)amino)nicotinamide] | 27 nM | < 1 nM |  |  |
| COc1cc(Nc2cc(-c3ccc4cc(C#N)cnn34)ncc2C(=O)NC[C@@H](F)C(C)(C)O)ccc1C(N)=O [Example 604, (R)-4-((4-carbamoyl-3-methoxyphenyl)amino)-6-(3-cyanopyrrolo[1,2-b]pyridazin-7-yl)-N-(2-fluoro-3-hydroxy-3-methylbutyl)nicotinamide] | 283 nM | 7 nM |  |  |
| CCNC(=O)C12CCC(Nc3cc(-c4ccc5cc(C#N)cnn45)ncc3C(=O)NC[C@@H](F)C(C)(C)O)(CC1)CC2 [Example 407, (R)-6-(3-cyanopyrrolo[1,2-b]pyridazin-7-yl)-4-((4-(ethyl-carbamoyl)bicyclo[2.2.2]octan-1-yl)amino)-N-(2-fluoro-3-hydroxy-3-methylbutyl)nicotinamide] | 20 nM | 2 nM |  |  |
| CC(C)Nc1cc(-c2ccc3cc(C#N)cnn23)ncc1C(=O)NC1CCS(=O)(=O)CC1 [Example 139, 6-(3-cyanopyrrolo[1,2-b]pyridazin-7-yl)-N-(1,1-dioxidotetrahydro-2H-thiopyran-4-yl)-4-(isopropylamino) nicotinamide] | 254 nM |  |  | 19 nM |
| CC(C)(O)[C@H](F)CNC(=O)c1cnc(-c2ccc3cc(C#N)cnn23)cc1N[C@@]12CC[C@@H](C1)[C@@H](O)C2 [Example 504, 6-(3-cyanopyrrolo[1,2-b]pyridazin-7-yl)-N-((R)-2-fluoro-3-hydroxy-3-methylbutyl)-4-(((1S,3S,4S)-3-hydroxybicyclo[2.2.1]heptan-1-yl)amino) nicotinamide] | 14 nM | < 1 nM |  |  |
| CC(C)(O)[C@H](F)CNC(=O)c1cnc(-c2ccc3cc(C#N)cnn23)cc1NC1CCNC(=O)C1 (stereo partly drawn) [Example 327, 6-(3-cyanopyrrolo[1,2-b]pyridazin-7-yl)-N-((R)-2-fluoro-3-hydroxy-3-methylbutyl)-4-((2-oxo-piperidin-4-yl)amino)nicotinamide] | 738 nM |  |  | 1 nM |
| CC(C)(O)[C@H](F)CNC(=O)c1cnc(-c2ccc3cc(C#N)cnn23)cc1Nc1ccc(-c2ncc[nH]2)cc1 [Example 230, (R)-4-((4-(1H-imidazol-2-yl)phenyl)amino)-6-(3-cyanopyrrolo[1,2-b]pyridazin-7-yl)-N-(2-fluoro-3-hydroxy-3-methylbutyl)nicotinamide] | 58 nM |  |  | < 1 nM |
| CC(C)(O)[C@H](F)CNC(=O)c1cnc(-c2ccc3cc(C#N)cnn23)cc1N[C@H]1CCC[C@@H](O)C1 [Example 2, 6-(3-cyanopyrrolo[1,2-b]pyridazin-7-yl)-N-((R)-2-fluoro-3-hydroxy-3-methylbutyl)-4-(((1S,3R)-3-hydroxycyclohexyl)amino)nicotinamide] | 9 nM |  |  | < 1 nM |
| C=CC(=O)N[C@H]1CC[C@H](Nc2cc(-c3ccc4cc(C#N)cnn34)ncc2C(=O)NC[C@@H](F)C(C)(C)O)CC1 [Example 425, 4-(((1r,4R)-4-acrylamidocyclohexyl)amino)-6-(3-cyano-pyrrolo[1,2-b]pyridazin-7-yl)-N-((R)-2-fluoro-3-hydroxy-3-methylbutyl) nicotinamide] | 120 nM | 2 nM |  |  |
| N#Cc1cnn2c(-c3cc(NC45CCC(O)(CC4)CC5)c(C(=O)NCC(=O)N4CCC5(COC5)C4)cn3)ccc2c1 [Example 799, 6-(3-cyanopyrrolo[1,2-b]pyridazin-7-yl)-4-((4-hydroxybicyclo[2.2.2]octan-1-yl)amino)-N-(2-oxo-2-(2-oxa-6-azaspiro[3.4]octan-6-yl)ethyl)nicotinamide] |  |  | 62 nM | < 1 nM |
| CC(C)(O)[C@H](F)CNC(=O)c1cnc(-c2ccc3cc(C#N)cnn23)cc1Nc1cnc2c(c1)OCCO2 [Example 850, (R)-6-(3-cyanopyrrolo[1,2-b]pyridazin-7-yl)-4-((2,3-dihydro-[1,4]dioxino[2,3-b]pyridin-7-yl)amino)-N-(2-fluoro-3-hydroxy-3-methylbutyl)nicotinamide] |  |  | 10 nM | < 1 nM |
| CCC(=O)NCc1ccc(Nc2cc(-c3ccc4cc(C#N)cnn34)ncc2C(=O)NC[C@@H](F)C(C)(C)O)cc1 [Example 204, (R)-6-(3-cyanopyrrolo[1,2-b]pyridazin-7-yl)-N-(2-fluoro-3-hydroxy-3-methylbutyl)-4-((4-(propionamido-methyl)phenyl)amino)nicotinamide] | 27 nM |  |  | < 1 nM |
| CC(C)Nc1cc(-c2ccc3cc(C#N)cnn23)ncc1C(=O)NCc1ccc(=O)[nH]c1 [Example 157, 6-(3-cyanopyrrolo[1,2-b]pyridazin-7-yl)-4-(isopro-pylamino)-N-((6-oxo-1,6-dihydropyridin-3-yl)methyl) nicotinamide] | 501 nM |  |  | 23 nM |
| CC(=O)N1CC2(CC(Nc3cc(-c4ccc5cc(C#N)cnn45)ncc3C(=O)NC[C@@H](F)C(C)(C)O)C2)C1 [Example 447, (R)-4-((2-acetyl-2-azaspiro[3.3]heptan-6-yl)amino)-6-(3-cyano-pyrrolo[1,2-b]pyridazin-7-yl)-N-(2-fluoro-3-hydroxy-3-methylbutyl) nicotinamide] | 286 nM | 5 nM |  |  |
| CC(C)(O)[C@H](F)CNC(=O)c1cnc(-c2ccc3cc(C#N)cnn23)cc1NC12CCC(C(=O)N3CC(F)C3)(CC1)CC2 [Example 400, (R)-6-(3-cyanopyrrolo[1,2-b]pyridazin-7-yl)-N-(2-fluoro-3-hydroxy-3-methylbutyl)-4-((4-(3-fluoroazetidine-1-carbonyl)bicyclo[2.2.2]octan-1-yl)amino) nicotinamide] | 21 nM | 1 nM |  |  |
